From patent publication US8906864B2, “Binding domains of proteins of the repulsive guidance molecule (RGM) protein family and functional fragments thereof, and their use” (AbbVie Deutschland GmbH & Co. KG, priority 2005, dated 2014)
Entries after “also recorded” stand apart in the source; their conditions may differ. Where no end group is shown, it is not given here.

Key:
Assay type in all cases: cell-based
[1] = tested on: Neogenin-expressing HEK293 cells; test: Fragment analysis with neogenin-expressing HEK293 cells (semiquantitative dot-blot of producing clones); details: stably transfected HEK293 clones
From the text: It was previously known that the active, growth-inhibiting activity of the RGM A protein from chickens is located in the region between amino acid position 150 and 350.
Fragments of the human RGM A protein which cover this range were therefore prepared. HEK293 cells which carry the RGM receptor endogenously on their surface were then transfected with these fragments in order to prepare clonal cell cultures which produce the individual protein fragments and release them into the culture medium. All the fragments were produced as fusion proteins with attached alkaline phosphatase enzyme. The presence of the active domain in these cells should make itself noticeable by: less cellular proliferation, increased cell death and/or altered cell-substrate adhesion.
Increased cell death and less proliferation have, of course, a direct effect on the produced amount of the active fragment. The amount of the produced fragments was assessed with the aid of a semiquantitative dot-blot assay.
The RGM A fragments prepared as in preparation example 1 were introduced into HEK293 cells. […]
In addition, the ratio of strongly to non-producing clones was determined.

human Ntera nerve cells = test: NTera nerve fiber growth assay (assay method 2); details: for inhibition of nerve fiber growth of human NTera cells: peptide concentration 30 μg/ml (higher concentration); for activity of RGM A peptides in NTera growth assay: FIG. 6A and 6B; for activity in NTera nerve fiber growth assay: peptide concentration 10 μg/ml (FIG. 6B)
Method: The human pluripotent carcinoma cell line Ntera (DSMZ ACC527) is an established cell culture model. In this case, axons grow out of cell aggregates and form a corona of axons around the respective aggregate.
For this purpose, 2.5×10^6 Ntera cells were seeded in a 175 cm^2 bottle and differentiated in 10 μM retinoic acid (Sigma) (medium: D-MEM (Gibco/Invitrogen 31966-021), 10% fetal calf serum, 100 u/ml penicillin, 100 μg/ml streptomycin (both Gibco/Invitrogen)) for 3 weeks. Differentiated cells were then divided 1:6 in new bottles and cultured without retinoic acid for a further 2 days. Neuronal cells adhering to the resulting cell lawn were detached by capping and aggregated by slow shaking in Neurobasal medium (Neurobasal Medium (Gibco/Invitrogen 21103-049), 2 mM L-glutamine (Gibco/Invitrogen 25030-024), 100 u/ml penicillin, 100 μg/ml streptomycin (both Gibco/Invitrogen) in a shaken flask overnight (in an incubator).
The next day, Ntera aggregates were seeded in poly-D-lysine and laminin (Sigma) (10 μg/ml) 96-well plates (Biocoat Poly-D-Lysine Cellware 96-Well Black/Clear Plate (Becton Dickinson #35 6640). The inhibitory effect of RGM peptides and fragments was analyzed by adding various concentrations of the substances to be tested.

rat cortical neurons = test: Neuronal outgrowth test with rat cortical neurons (assay method 1)
Method: The effect of RGM peptides in vitro was investigated by carrying out neuronal outgrowth tests. For this purpose, rat cortical neurons were prepared using the following media:
Cortical neurons were obtained by sacrificing pregnant rats by cervical dislocation, opening the abdominal cavity thereof, removing the uterus with the embryos (embryonic day 18 (E18)) and washing in PBS. Microdissection scissors were used to cut open the uterus longitudinally, and the embryos were removed and exposed. The embryos were sacrificed by throat-cutting, the brain was removed and the forebrain cortex was dissected. […] The cells were counted in a Neubauer counting chamber, and the number of cells was adjusted to about 400 000 cells/0.2 ml in MM and preaggregated. […] 24-48 h later, the axonal outgrowths were initially assessed by examination under a light microscope, and the cultures were then fixed by adding 100 μl of 4% paraformaldehyde solution and stored at 4° C. for at least 12 hours. […] The fluorescence-labeled secondary antibody (Jackson ImmunoResearch, Cy3 conjugated Affinity Pure Donkey Anti Mouse #715-165-151) was diluted 1:500 in 1% bovine serum albumin solution in PBS, which additionally comprised 0.5 μg/ml bisbenzimide (H33258) to visualize the cell nuclei, and 50 μl of this dilution were incubated per well at room temperature for 1-2 h or at 4° C. overnight. […]

Row | Substance | inhibition of nerve fiber growth of human NTera cells (human Ntera nerve cells) | activity of RGM A peptides in NTera growth assay (human Ntera nerve cells; overall result) | activity in NTera nerve fiber growth assay (human Ntera nerve cells) | also measured
1 | Fragment 5: human RGM A fragment amino acids 369-422, expressed in HEK293 as AP fusion protein (PVEDLYYQACVFDLLTTGDVNFTLAAYYALEDVKMLHSNKDKLHLYERTRDLPG; also: alkaline phosphatase fusion; UniProt Q96B86 369-422, looked up, fragment) | – | – | – | Proportion of strongly producing cell clones [1]: 16%; Ratio "S producer" versus "0 producer" ([1]; low value = active fragment): 0.63; activity (inhibitory for axon growth) of RGM A fragments in NTera outgrowth assay (human Ntera nerve cells; stated concentrations (FIG. 5B), overall result): inactive
2 | Peptide 4: synthetic RGM A peptide AA 378-400 of SEQ ID NO: 2 (CVFDLLTTGDVNFTLAAYYALED; listed as Homo sapiens) | not | – | – | activity on nerve fiber growth of cortical neurons (axon growth index) (rat cortical neurons; concentrations 0 to 30 μg/ml (FIG. 3C)): no activity; influence on nerve fiber growth of rat neuronal cells (rat cortical neurons; peptide concentration 10 μg/ml, fluorescence micrographs (FIG. 3A)): inactive
3 | Peptide 5-Ak: RGM A peptide 242-259, AFVDGSKNGGDKHGANSL (SEQ ID NO: 30) | – | Inactive or only weakly active | inactive | –
4 | Peptide 6-Ak: RGM A peptide 300-316, VVNAVEDWDSQGLYLC (SEQ ID NO: 28) | distinct trend in the direction of inhibition of nerve fiber growth; also recorded: tendency to inhibit growth | Inactive or only weakly active | inactive | –
5 | Peptide 7-Ak: RGM A peptide 217-234, TIIFKNFQECVDQKVYQA (SEQ ID NO: 29) | distinct trend in the direction of inhibition of nerve fiber growth; also recorded: tendency to inhibit growth | Inactive or only weakly active | inactive | –
6 | Peptide Down-1: RGM A peptide 260-275, KITEKVSGQHVEIQAK (SEQ ID NO: 26) | inhibited nerve fiber growth highly significantly | large reduction in nerve fiber growth | – | –
7 | Peptide Up-1: RGM A peptide 276-291, YIGTTIVVRQVGRYLT (SEQ ID NO: 27) | inhibited nerve fiber growth highly significantly | large reduction in nerve fiber growth | – | –
